Assay results from US11685766B2, “14-3-3 targeting peptides for cancer treatment” (Creighton University, priority 2019, dated 2023).
“Also recorded” adds a separate entry of the source. Peptide text beside a SMILES is read from it.

Tested on: normal human epidermal keratinocytes (nHEK)
Experiment: Neutral Red Cell Viability assay in normal keratinocytes
Type: cell-based
Details: FIG. 1A dashed line
Description: Human skin cancer cell lines (SCC12B.2, SCC13, SRB12) were maintained in Dulbecco's modified Eagle's medium (DMEM) (Invitrogen, Carlsbad, Calif., USA) supplemented with 1% penicillin (10 000 U/ml)-streptomycin (10 000 μg/ml) (PenStrep) (Invitrogen) and 10% fetal bovine serum (Gemini Bio-Products, Sacramento, Calif., USA) at 37° C. and 5% CO2. Normal human epidermal keratinocytes (nHEK) (Thermo Scientific, Waltham, Mass., USA) isolated from neonatal foreskin were cultured in EpiLife medium (Invitrogen) supplemented with human keratinocyte growth supplement (Invitrogen) and 1% PenStrep (Invitrogen). […]
To determine the half maximal inhibitory concentration (IC50) for ES1P2 in SCC12B.2 and nHEK cells, cells were plated in a 96-well plate at a density of 6×10^3 cells/well. […] Neutral Red Cell Viability assays were performed, where absorbance was measured using a Cytation 5 multi-mode plate reader (BioTek). […]

NCCCC[C@H](NC(=O)[C@H](Cc1c[nH]c2ccccc12)NC(=O)[C@H](Cc1ccc(O)cc1)NC(=O)[C@@H](N)Cc1c[nH]c2ccccc12)C(N)=O [ES1P2, Trp-Tyr-Trp-Lys-NH2] (H-WYWK-NH2)
toxicity to normal keratinocytes: killed SCC cells but not normal keratinocytes; also recorded: nontoxic
